Data set [1] deals with Podosphaera xanthii. Nature of the data set: Fungicidal activity against Podosphaera xanthii (powdery mildew) inoculated in squash (Cucurbita pepo) rootstock seedlings continuously after first drug application assessed as disease severity at 20.6% in 1.36 ml/L applied thrice at 5-days intervals measured 5 days after third application under green house conditions (water Rvb = 3.9%). The class given is functional.

Data set [2] deals with Podosphaera xanthii. Put plainly: Fungicidal activity against Podosphaera xanthii (powdery mildew) inoculated in inter-specific squash hybrid Strong tosa (Cucurbita moschata x Cucurbita maxima) rootstock seedlings for 7 days prior to drug application assessed as disease severity at 20.6% in 1.36 ml/L applied once measured 7 days post-drug dose under greenhouse conditions (water Rvb = 17.5%). The class given is functional.

Data set [3] deals with Lagenaria siceraria. Nature of the data set: Phytotoxicity against Lagenaria siceraria 'Emphasis' rootstock seedlings assessed as stunting. The class given is organism-based. As to conditions: in vivo.
Data set [4] relates to Podosphaera xanthii. Put plainly: Fungicidal activity against Podosphaera xanthii (powdery mildew) inoculated in inter-specific squash hybrid Strong tosa (Cucurbita moschata x Cucurbita maxima) rootstock seedlings for 7 days prior to drug application assessed as disease severity on upper surface areas of cotyledonsat 20.6% in 1.36 ml/L applied once measured 7 days post-drug dose under greenhouse conditions (water Rvb = 10.2%). Type of data set: functional.

The test system of data set [5] is Podosphaera xanthii. Put plainly: Fungicidal activity against Podosphaera xanthii (powdery mildew) inoculated in Lagenaria siceraria Emphasis continuously after first drug application assessed as disease severity at 20.6% in 1.36 ml/L applied thrice at 5-days intervals measured 5 days after third application under green house conditions (water Rvb = 53.5%). Type of data set: functional.

Data set [6] deals with Podosphaera xanthii. Nature of the data set: Fungicidal activity against Podosphaera xanthii (powdery mildew) inoculated in Lagenaria siceraria Emphasis continuously after first drug application assessed as disease severity on lower surface areas of cotyledons at 20.6% in 1.36 ml/L applied thrice at 5-days intervals measured 5 days after third application under green house conditions (water Rvb = 13.9%). Type of data set: functional.

Data set [7] relates to Podosphaera xanthii. Put plainly: Fungicidal activity against Podosphaera xanthii (powdery mildew) inoculated in inter-specific squash hybrid Strong tosa (Cucurbita moschata x Cucurbita maxima) rootstock seedlings for 7 days prior to drug application assessed as disease severity on lower surface areas of cotyledonsat 20.6% in 1.36 ml/L applied once measured 7 days post-drug dose under greenhouse conditions (water Rvb = 5.1%). The class given is functional.

Data set [8] has as its system Podosphaera xanthii. Put plainly: Fungicidal activity against Podosphaera xanthii (powdery mildew) inoculated in squash (Cucurbita pepo) rootstock seedlings continuously after first drug application assessed as incidence of disease symptoms on hypocotyls or upper or lower sides of cotyledons at 20.6% in 1.36 ml/L applied thrice at 5-days intervals measured 5 days after third application under green house conditions (water Rvb = …. Type of data set: functional.

Data set [9] relates to Podosphaera xanthii. Nature of the data set: Fungicidal activity against Podosphaera xanthii (powdery mildew) inoculated in inter-specific squash hybrid Strong tosa (Cucurbita moschata x Cucurbita maxima) rootstock seedlings for 7 days prior to drug application assessed as incidence of disease symptoms on hypocotyls or upper or lower sides of cotyledons at 20.6% in 1.36 ml/L applied once measured 7 days post-drug dose under greenhouse …. Type of data set: functional.

The test system of data set [10] is Cucurbita maxima x Cucurbita moschata. Nature of the data set: Phytotoxicity against inter-specific squash hybrid Cucurbita moschata x Cucurbita maxima (Strong tosa) rootstock seedlings assessed as stunting. The class given is organism-based. As to conditions: in vivo.
The test system of data set [11] is Podosphaera xanthii. Put plainly: Fungicidal activity against Podosphaera xanthii (powdery mildew) inoculated in Lagenaria siceraria Emphasis continuously after first drug application assessed as disease severity on upper surface areas of cotyledons at 20.6% in 1.36 ml/L applied thrice at 5-days intervals measured 5 days after third application under green house conditions (water Rvb = 36.8%). The class given is functional.

Data set [12] deals with Podosphaera xanthii. Nature of the data set: Fungicidal activity against Podosphaera xanthii (powdery mildew) inoculated in Lagenaria siceraria Emphasis continuously after first drug application assessed as incidence of disease symptoms on hypocotyls or upper or lower sides of cotyledons at 20.6% in 1.36 ml/L applied thrice at 5-days intervals measured 5 days after third application under green house conditions (water Rvb = 100%). Type of data set: functional.

Data set [13] concerns Podosphaera xanthii. Put plainly: Fungicidal activity against Podosphaera xanthii (powdery mildew) inoculated in squash (Cucurbita pepo) rootstock seedlings continuously after first drug application assessed as disease severity at 22.58% in 0.47ml/L applied thrice at 5-days intervals measured 5 days after third application under green house conditions (water Rvb = 3.9%). Type of data set: functional.

Data set [14] has as its system Podosphaera xanthii. Nature of the data set: Fungicidal activity against Podosphaera xanthii (powdery mildew) inoculated in squash (Cucurbita pepo) rootstock seedlings continuously after first drug application assessed as incidence of disease symptoms on hypocotyls or upper or lower sides of cotyledons at 22.58% in 0.47ml/L applied thrice at 5-days intervals measured 5 days after third application under green house conditions (water Rvb = …. Type of data set: functional.

The subject of data set [15] is Podosphaera xanthii. Put plainly: Fungicidal activity against Podosphaera xanthii (powdery mildew) inoculated in inter-specific squash hybrid Strong tosa (Cucurbita moschata x Cucurbita maxima) rootstock seedlings for 7 days prior to drug application assessed as disease severity on lower surface areas of cotyledonsat 22.58% in 0.47ml/L applied once measured 7 days post-drug dose under greenhouse conditions (water Rvb = 5.1%). Type of data set: functional.

The subject of data set [16] is Lagenaria siceraria. Put plainly: Phytotoxicity against Lagenaria siceraria 'Emphasis' rootstock seedlings assessed as severe chlorosis or necrosis on cotyledons. The class given is organism-based. Conditions: in vivo.
The test system of data set [17] is Cucurbita maxima x Cucurbita moschata. Put plainly: Phytotoxicity against inter-specific squash hybrid Cucurbita moschata x Cucurbita maxima (Strong tosa) rootstock seedlings assessed as severe chlorosis or necrosis on cotyledons. Type of data set: organism-based. Conditions: in vivo.
Data set [18] has as its system Podosphaera xanthii. Nature of the data set: Fungicidal activity against Podosphaera xanthii (powdery mildew) inoculated in inter-specific squash hybrid Strong tosa (Cucurbita moschata x Cucurbita maxima) rootstock seedlings for 7 days prior to drug application assessed as disease severity on upper surface areas of cotyledonsat 22.58% in 0.47ml/L applied once measured 7 days post-drug dose under greenhouse conditions (water Rvb = 10.2%). The class given is functional.

The subject of data set [19] is Podosphaera xanthii. Nature of the data set: Fungicidal activity against Podosphaera xanthii (powdery mildew) inoculated in inter-specific squash hybrid Strong tosa (Cucurbita moschata x Cucurbita maxima) rootstock seedlings for 7 days prior to drug application assessed as disease severity at 22.58% in 0.47ml/L applied once measured 7 days post-drug dose under greenhouse conditions (water Rvb = 17.5%). The class given is functional.

The subject of data set [20] is Podosphaera xanthii. Put plainly: Fungicidal activity against Podosphaera xanthii (powdery mildew) inoculated in inter-specific squash hybrid Strong tosa (Cucurbita moschata x Cucurbita maxima) rootstock seedlings for 7 days prior to drug application assessed as incidence of disease symptoms on hypocotyls or upper or lower sides of cotyledons at 22.58% in 0.47ml/L applied once measured 7 days post-drug dose under greenhouse …. Type of data set: functional.

Turning to `CC(C)CC(C)c1sccc1NC(=O)c1cn(C)nc1C(F)(F)F` (stereo not given) [PENTHIOPYRAD], the Activity was 0% in the data set on Podosphaera xanthii [1]; 0.05% in the data set with Podosphaera xanthii [2]; “Toxic” with Lagenaria siceraria [3]; 0% in the data set on Podosphaera xanthii [4]; 1.3% with Podosphaera xanthii [5]; 0.3% in the data set on Podosphaera xanthii [6]. The Activity with Podosphaera xanthii [7] is given as 0.03%; with Podosphaera xanthii [8], 0%; with Podosphaera xanthii [9] it was 2.3%; in [10] it was “Toxic”; in the data set on Podosphaera xanthii [11], 0.9%; in the data set on Podosphaera xanthii [12], 14.6%.
In the case of `Fc1ccc(Oc2ccnc3cc(Cl)cc(Cl)c23)cc1` [QUINOXYFEN], the Activity in the data set with Podosphaera xanthii [13] is on record as 0.43%; with Podosphaera xanthii [14], 23.4%; in the data set on Podosphaera xanthii [15] it was 0.3%; with Lagenaria siceraria [16], “Toxic”; in data set [17] it was “Toxic”; with Podosphaera xanthii [18], 1.2%. In addition, the Activity in the data set with Podosphaera xanthii [19] was found to be 1.8%; in the data set with Podosphaera xanthii [20], 14.6%.

Values taken from ChEMBL document CHEMBL3044926, “Controlling powdery mildew on cucurbit rootstock seedlings in the greenhouse with fungicides and biofungicides” (Crop Prot, 2012).
